Columns and labels:
[1] = Highest frequency of moderate liver toxicity observed during clinical trials, expressed as a percentage. [column '% BIOL' in source]; conditions: human
[2] = Highest frequency of acute liver toxicity observed during clinical trials, expressed as a percentage. [column '% AIGUE' in source]; conditions: human
[3] = Times to onset, minimal and maximal, observed in the indexed observations. [column 'DELAI' in source]; conditions: human
[4] = human, serum
[5] = human, serum; remark: listed apart in the source
[6] = human
[7] = human; remark: listed apart in the source
[8] = human; remark: listed apart in the source
[9] = human, serum, 4383 h
[10] = human; remark: listed apart in the source
[11] = human; remark: listed apart in the source
[12] = human; remark: listed apart in the source
[13] = human; remark: listed apart in the source
[14] = human; remark: listed apart in the source
[15] = human; remark: listed apart in the source
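For Hepatotoxicity (association with vascular disease) in this document: count of indexed literature references reporting vascular liver injury in humans, e.g. peliosis hepatitis, hepatic veno-occlusive disease or Budd-Chiari syndrome.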
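For Hepatotoxicity (benign tumour) in this document: value is a count of indexed literature references citing a benign tumour confirmed by histopathology.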
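For Hepatotoxicity (choleostasis) in this document: human cholestatic liver injury, shown by histopathology or by peak ALT or AST elevation over alkaline phosphatase ratio below 2, value counts indexed literature reports.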
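For Hepatotoxicity (chronic liver disease) in this document: chronic liver injury confirmed by histopathology or persistently raised serum aminotransferase activity beyond 6 months, value given as the count of indexed literature references.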
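For Hepatotoxicity (cirrhosis) in this document: value is a count of indexed literature references reporting cirrhosis confirmed by histopathology.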
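For Hepatotoxicity (cytolytic) in this document: human cytolytic liver injury, shown by histopathology or by a ratio above 5 of peak ALT or AST elevation to alkaline phosphatase elevation, value counts indexed references.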
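For Hepatotoxicity (granulomatous hepatitis) in this document: value is a count of indexed literature references reporting granulomatous liver disease confirmed by histopathology.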
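For Hepatotoxicity (malignant tumour) in this document: malignant tumour confirmed by histopathology, value gives the count of indexed literature references reporting it.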
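For Hepatotoxicity (severe hepatitis) in this document: human clinical data: severe hepatitis, meaning potentially life-threatening liver failure or clinically observed cases, the value counts how many indexed literature references report it.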
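For Hepatotoxicity (steatosis) in this document: steatosis confirmed by histopathology, value is the count of indexed references.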

## CCOC(=O)c1cncn1[C@H](C)c1ccccc1 [ETOMIDATE]
[1]; Liver
  Hepatotoxicity (moderate): 5%
[2]; Liver
  Hepatotoxicity (acute): 0%
[3]
  Hepatotoxicity (time to onset): 3 days - 5 days
[4]
  Hepatotoxicity (moderate): 1
[5]
  Hepatotoxicity (acute): 0
[6]
  Hepatotoxicity (cytolytic): 0
[7]
  Hepatotoxicity (choleostasis): 0
[8]; Liver
  Hepatotoxicity (severe hepatitis): 0
[9]
  Hepatotoxicity (chronic liver disease): 0
[10]
  Hepatotoxicity (cirrhosis): 0
[11]
  Hepatotoxicity (granulomatous hepatitis): 0
[12]
  Hepatotoxicity (association with vascular disease): 0
[13]
  Hepatotoxicity (steatosis): 0
[14]
  Hepatotoxicity (malignant tumour): 0
[15]
  Hepatotoxicity (benign tumour): 0

## CC(=O)Nc1nnc(S(N)(=O)=O)s1 [ACETAZOLAMIDE]
[1]
  Hepatotoxicity (moderate): 0%
[2]
  Hepatotoxicity (acute): 0%
[3]
  Hepatotoxicity (time to onset): 1 month
[4]
  Hepatotoxicity (moderate): 0
[5]
  Hepatotoxicity (acute): 1
[6]
  Hepatotoxicity (cytolytic): 0
[7]
  Hepatotoxicity (choleostasis): 1
[8]
  Hepatotoxicity (severe hepatitis): 1
[9]
  Hepatotoxicity (chronic liver disease): 0
[10]
  Hepatotoxicity (cirrhosis): 0
[11]
  Hepatotoxicity (granulomatous hepatitis): 0
[12]
  Hepatotoxicity (association with vascular disease): 0
[13]
  Hepatotoxicity (steatosis): 1
[14]
  Hepatotoxicity (malignant tumour): 0
[15]
  Hepatotoxicity (benign tumour): 0

## CN[C@@H]1[C@H](O)[C@H](NC)[C@H]2O[C@@]3(O)C(=O)C[C@@H](C)O[C@H]3O[C@@H]2[C@H]1O [SPECTINOMYCIN]
[1]
  Hepatotoxicity (moderate): 0%
[2]
  Hepatotoxicity (acute): 0%
[3]
  Hepatotoxicity (time to onset): 3 days
[4]
  Hepatotoxicity (moderate): 1
[5]
  Hepatotoxicity (acute): 1
[6]
  Hepatotoxicity (cytolytic): 0
[7]
  Hepatotoxicity (choleostasis): 1
[8]
  Hepatotoxicity (severe hepatitis): 0
[9]
  Hepatotoxicity (chronic liver disease): 0
[10]
  Hepatotoxicity (cirrhosis): 0
[11]
  Hepatotoxicity (granulomatous hepatitis): 0
[12]
  Hepatotoxicity (association with vascular disease): 0
[13]
  Hepatotoxicity (steatosis): 0
[14]
  Hepatotoxicity (malignant tumour): 0
[15]
  Hepatotoxicity (benign tumour): 0

## CC(=O)N[C@H]1[C@H]([C@H](O)[C@H](O)CO)OC(C(=O)O)=C[C@@H]1N=C(N)N [ZANAMIVIR]
[1]
  Hepatotoxicity (moderate): 14.5%
[2]
  Hepatotoxicity (acute): 0%
[3]
  Hepatotoxicity (time to onset): 8 days
[4]
  Hepatotoxicity (moderate): 2
[5]
  Hepatotoxicity (acute): 0
[6]
  Hepatotoxicity (cytolytic): 0
[7]
  Hepatotoxicity (choleostasis): 0
[8]
  Hepatotoxicity (severe hepatitis): 0
[9]
  Hepatotoxicity (chronic liver disease): 0
[10]
  Hepatotoxicity (cirrhosis): 0
[11]
  Hepatotoxicity (granulomatous hepatitis): 0
[12]
  Hepatotoxicity (association with vascular disease): 0
[13]
  Hepatotoxicity (steatosis): 0
[14]
  Hepatotoxicity (malignant tumour): 0
[15]
  Hepatotoxicity (benign tumour): 0

## NC(=O)CCC/N=C(\c1ccc(Cl)cc1)c1cc(F)ccc1O [PROGABIDE]
[1]
  Hepatotoxicity (moderate): 30%
[2]
  Hepatotoxicity (acute): 3.4%
[3]
  Hepatotoxicity (time to onset): 2 weeks - 6 months
[4]
  Hepatotoxicity (moderate): 6
[5]
  Hepatotoxicity (acute): 6
[6]
  Hepatotoxicity (cytolytic): 4
[7]
  Hepatotoxicity (choleostasis): 0
[8]
  Hepatotoxicity (severe hepatitis): 4
[9]
  Hepatotoxicity (chronic liver disease): 0
[10]
  Hepatotoxicity (cirrhosis): 0
[11]
  Hepatotoxicity (granulomatous hepatitis): 0
[12]
  Hepatotoxicity (association with vascular disease): 0
[13]
  Hepatotoxicity (steatosis): 0
[14]
  Hepatotoxicity (malignant tumour): 0
[15]
  Hepatotoxicity (benign tumour): 0

## CC(C)COCC(CN(Cc1ccccc1)c1ccccc1)N1CCCC1 (stereo not given) [BEPRIDIL]
[1]
  Hepatotoxicity (moderate): 2.8%
[2]
  Hepatotoxicity (acute): 0%
[3]
  Hepatotoxicity (time to onset): 4 days - 20 days
[4]
  Hepatotoxicity (moderate): 3
[5]
  Hepatotoxicity (acute): 1
[6]
  Hepatotoxicity (cytolytic): 1
[7]
  Hepatotoxicity (choleostasis): 0
[8]
  Hepatotoxicity (severe hepatitis): 0
[9]
  Hepatotoxicity (chronic liver disease): 0
[10]
  Hepatotoxicity (cirrhosis): 0
[11]
  Hepatotoxicity (granulomatous hepatitis): 0
[12]
  Hepatotoxicity (association with vascular disease): 0
[13]
  Hepatotoxicity (steatosis): 1
[14]
  Hepatotoxicity (malignant tumour): 0
[15]
  Hepatotoxicity (benign tumour): 0

## Cc1c(O)c(=O)ccn1C [DEFERIPRONE]
[1]
  Hepatotoxicity (moderate): 59.5%
[2]
  Hepatotoxicity (acute): 1.2%
[3]
  Hepatotoxicity (time to onset): 3 months
[4]
  Hepatotoxicity (moderate): 8
[5]
  Hepatotoxicity (acute): 1
[6]
  Hepatotoxicity (cytolytic): 1
[7]
  Hepatotoxicity (choleostasis): 0
[8]
  Hepatotoxicity (severe hepatitis): 0
[9]
  Hepatotoxicity (chronic liver disease): 0
[10]
  Hepatotoxicity (cirrhosis): 0
[11]
  Hepatotoxicity (granulomatous hepatitis): 0
[12]
  Hepatotoxicity (association with vascular disease): 0
[13]
  Hepatotoxicity (steatosis): 0
[14]
  Hepatotoxicity (malignant tumour): 0
[15]
  Hepatotoxicity (benign tumour): 0

## MUROMONAB-CD3
[1]
  Hepatotoxicity (moderate): 0%
[2]
  Hepatotoxicity (acute): 0%
[3]
  Hepatotoxicity (time to onset): 1 days
[4]
  Hepatotoxicity (moderate): 0
[5]
  Hepatotoxicity (acute): 1
[6]
  Hepatotoxicity (cytolytic): 1
[7]
  Hepatotoxicity (choleostasis): 0
[8]
  Hepatotoxicity (severe hepatitis): 0
[9]
  Hepatotoxicity (chronic liver disease): 0
[10]
  Hepatotoxicity (cirrhosis): 0
[11]
  Hepatotoxicity (granulomatous hepatitis): 0
[12]
  Hepatotoxicity (association with vascular disease): 0
[13]
  Hepatotoxicity (steatosis): 0
[14]
  Hepatotoxicity (malignant tumour): 0
[15]
  Hepatotoxicity (benign tumour): 0

## CC[C@H]1OC(=O)[C@H](C)[C@@H](O[C@H]2C[C@@](C)(OC)[C@@H](O)[C@H](C)O2)[C@H](C)[C@@H](O[C@@H]2O[C@H](C)C[C@H](N(C)C)[C@H]2O)[C@](C)(O)C[C@@H](C)/C(=N\OCOCCOC)[C@H](C)[C@@H](O)[C@]1(C)O [ROXITHROMYCIN]
[1]
  Hepatotoxicity (moderate): 22.6%
[2]
  Hepatotoxicity (acute): 0%
[3]
  Hepatotoxicity (time to onset): 4 days - 10 months
[4]
  Hepatotoxicity (moderate): 38
[5]
  Hepatotoxicity (acute): 10
[6]
  Hepatotoxicity (cytolytic): 7
[7]
  Hepatotoxicity (choleostasis): 6
[8]
  Hepatotoxicity (severe hepatitis): 2
[9]
  Hepatotoxicity (chronic liver disease): 0
[10]
  Hepatotoxicity (cirrhosis): 0
[11]
  Hepatotoxicity (granulomatous hepatitis): 0
[12]
  Hepatotoxicity (association with vascular disease): 0
[13]
  Hepatotoxicity (steatosis): 0
[14]
  Hepatotoxicity (malignant tumour): 0
[15]
  Hepatotoxicity (benign tumour): 0

## Clc1ccc2c(c1)C(N1CCNCC1)=Nc1ccccc1O2 [AMOXAPINE]
[1]
  Hepatotoxicity (moderate): 0%
[2]
  Hepatotoxicity (acute): 0%
[3]
  Hepatotoxicity (time to onset): 4 days - 18 days
[4]
  Hepatotoxicity (moderate): 2
[5]
  Hepatotoxicity (acute): 2
[6]
  Hepatotoxicity (cytolytic): 2
[7]
  Hepatotoxicity (choleostasis): 0
[8]
  Hepatotoxicity (severe hepatitis): 0
[9]
  Hepatotoxicity (chronic liver disease): 0
[10]
  Hepatotoxicity (cirrhosis): 0
[11]
  Hepatotoxicity (granulomatous hepatitis): 0
[12]
  Hepatotoxicity (association with vascular disease): 0
[13]
  Hepatotoxicity (steatosis): 0
[14]
  Hepatotoxicity (malignant tumour): 0
[15]
  Hepatotoxicity (benign tumour): 0

## CCOC(Nc1ccc(C(=O)O)cc1)C(=O)c1ccc(-c2ccccc2)cc1 (stereo not given) [XENAZOIC ACID]
[1]
  Hepatotoxicity (moderate): 0%
[2]
  Hepatotoxicity (acute): 0%
[3]
  Hepatotoxicity (time to onset): 1 week - 2 weeks
[4]
  Hepatotoxicity (moderate): 0
[5]
  Hepatotoxicity (acute): 2
[6]
  Hepatotoxicity (cytolytic): 0
[7]
  Hepatotoxicity (choleostasis): 0
[8]
  Hepatotoxicity (severe hepatitis): 0
[9]
  Hepatotoxicity (chronic liver disease): 0
[10]
  Hepatotoxicity (cirrhosis): 0
[11]
  Hepatotoxicity (granulomatous hepatitis): 0
[12]
  Hepatotoxicity (association with vascular disease): 0
[13]
  Hepatotoxicity (steatosis): 0
[14]
  Hepatotoxicity (malignant tumour): 0
[15]
  Hepatotoxicity (benign tumour): 0
